From patent publication US20260263459A1, “PHTHALAZINONE GSPT1 PROTEIN DEGRADING AGENT AND USE THEREOF” (CHINA PHARMACEUTICAL UNIVERSITY, priority 2023, published 2026)
pIC50: −log10 of the molar value.

What was measured:
KG-1 cells = experiment: Antiproliferative activity against KG-1 cells (CCK8); assay type: cell-based; settings: Homo sapiens, 72 h incubation, CCK8 method
Procedure: KG-1 cells in the logarithmic growth phase were diluted in a culture medium (RPMI+10% FBS) and plated onto 96-well plates at 5000 cells/well, and the plates were incubated in an incubator at 37° C. with 5% CO2 for 24 h. 10 mM stock solutions of the test compounds of the present disclosure in DMSO were prepared and diluted with the culture medium to set 9 concentration gradients. 3 replicate wells were set for each concentration. After compound addition, the plates were incubated in an incubator at 37° C. with 5% CO2 for 72 h. The cell proliferation was assessed using the CCK8 method. The cell growth inhibition IC50 values of the compounds were determined using an enzyme labeling method. The IC50 values were calculated using GraphPad Prism 7 software.
The antiproliferative activity of the compounds against KG-1 cells is shown in Table 2, where A represents IC50≤30 nM, B represents 30<IC50≤300 nM, and C represents IC50>300 nM.

GSPT1 protein = molecular target: T1, GSPT1 protein (Homo sapiens, UniProt P15170+Q96SW2); experiment: Degradation of GSPT1 in KG-1 cells (Western blot); assay type: cell-based; settings: compound concentration 200 nM, 4 h incubation
T1 construct: Whole cell lysates were prepared; endogenous in cells; host or cells: KG-1 cells
T1 sequence (P15170 whole entry): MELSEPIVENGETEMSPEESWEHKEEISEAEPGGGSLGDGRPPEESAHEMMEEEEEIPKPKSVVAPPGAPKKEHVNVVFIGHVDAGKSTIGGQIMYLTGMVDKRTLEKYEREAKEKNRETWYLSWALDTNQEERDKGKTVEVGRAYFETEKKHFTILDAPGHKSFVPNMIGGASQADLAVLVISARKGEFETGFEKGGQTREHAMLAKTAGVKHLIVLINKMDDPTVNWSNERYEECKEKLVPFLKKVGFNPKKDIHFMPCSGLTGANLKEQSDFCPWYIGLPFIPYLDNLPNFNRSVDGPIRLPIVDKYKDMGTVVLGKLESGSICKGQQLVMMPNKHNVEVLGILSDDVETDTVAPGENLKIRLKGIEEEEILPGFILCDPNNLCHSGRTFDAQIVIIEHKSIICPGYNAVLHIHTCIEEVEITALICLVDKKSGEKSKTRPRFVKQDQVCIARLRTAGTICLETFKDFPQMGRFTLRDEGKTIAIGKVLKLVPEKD
T1 sequence (Q96SW2 whole entry): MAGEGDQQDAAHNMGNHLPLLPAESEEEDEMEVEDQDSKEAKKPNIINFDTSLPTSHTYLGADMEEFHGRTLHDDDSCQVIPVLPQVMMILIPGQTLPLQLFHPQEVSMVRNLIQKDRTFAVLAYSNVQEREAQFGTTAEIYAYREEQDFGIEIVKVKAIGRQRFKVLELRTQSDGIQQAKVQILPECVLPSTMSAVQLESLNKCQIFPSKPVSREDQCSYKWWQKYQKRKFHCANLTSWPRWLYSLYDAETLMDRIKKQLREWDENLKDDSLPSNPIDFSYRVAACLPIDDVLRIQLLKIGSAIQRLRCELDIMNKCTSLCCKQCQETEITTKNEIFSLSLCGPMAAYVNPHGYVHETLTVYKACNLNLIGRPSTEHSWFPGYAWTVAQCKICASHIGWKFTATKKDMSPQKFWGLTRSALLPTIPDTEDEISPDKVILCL
T1 sequence (Q16531 whole entry partner): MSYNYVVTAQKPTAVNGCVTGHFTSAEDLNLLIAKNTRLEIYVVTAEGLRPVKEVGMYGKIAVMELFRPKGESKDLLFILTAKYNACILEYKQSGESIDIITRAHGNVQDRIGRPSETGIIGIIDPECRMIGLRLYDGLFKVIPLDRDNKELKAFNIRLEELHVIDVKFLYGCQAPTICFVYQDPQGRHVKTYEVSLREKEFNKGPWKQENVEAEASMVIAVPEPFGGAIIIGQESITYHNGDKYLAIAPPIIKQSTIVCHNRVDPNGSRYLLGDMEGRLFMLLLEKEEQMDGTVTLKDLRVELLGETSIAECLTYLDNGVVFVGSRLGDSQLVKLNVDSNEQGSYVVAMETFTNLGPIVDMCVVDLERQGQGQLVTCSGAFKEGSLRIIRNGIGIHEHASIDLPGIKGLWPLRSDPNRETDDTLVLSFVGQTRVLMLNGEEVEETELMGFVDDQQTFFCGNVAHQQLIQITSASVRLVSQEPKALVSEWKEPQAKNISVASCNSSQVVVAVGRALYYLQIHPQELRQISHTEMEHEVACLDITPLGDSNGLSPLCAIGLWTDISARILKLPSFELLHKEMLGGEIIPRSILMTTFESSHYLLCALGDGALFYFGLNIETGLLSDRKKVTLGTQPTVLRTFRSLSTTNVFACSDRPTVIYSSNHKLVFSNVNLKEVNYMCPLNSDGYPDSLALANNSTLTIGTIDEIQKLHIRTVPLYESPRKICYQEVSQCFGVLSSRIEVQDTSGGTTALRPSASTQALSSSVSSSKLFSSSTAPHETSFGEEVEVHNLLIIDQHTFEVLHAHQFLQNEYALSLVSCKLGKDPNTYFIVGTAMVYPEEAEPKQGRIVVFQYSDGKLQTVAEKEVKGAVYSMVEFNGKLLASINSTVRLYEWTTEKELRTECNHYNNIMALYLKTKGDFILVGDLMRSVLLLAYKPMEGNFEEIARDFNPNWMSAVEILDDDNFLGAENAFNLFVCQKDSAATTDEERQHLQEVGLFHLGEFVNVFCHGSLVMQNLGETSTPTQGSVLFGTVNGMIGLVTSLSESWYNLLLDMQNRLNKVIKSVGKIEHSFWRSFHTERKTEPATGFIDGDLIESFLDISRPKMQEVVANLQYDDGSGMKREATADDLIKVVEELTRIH
Procedure: KG-1 cells were grown in an IMDM culture medium (containing 20% FBS). After centrifugation and counting, the cell concentration was adjusted. The cells were plated onto 6-well plates at 10^6 cells/well, with 1350 μL per well. 150 μL of DMSO and the test compounds of the present disclosure (compound concentration: 200 nM) were added. The plates were incubated in an incubator at 37° C. with 5% CO2 for 4 h. The cells were centrifuged, and the culture medium was discarded. PBS was added to wash the cells and then discarded. Whole cell lysates were prepared using a protease inhibitor cocktail (100×, Fude Biological), a protein phosphatase inhibitor cocktail (100×, Fude Biological), Super Nuclease (Beyotime), and a high-intensity RIPA lysis buffer (Thermo Fisher) and placed on ice for 30 min. After centrifugation, the cell debris precipitates were discarded, and the whole cell lysate supernatants were collected and transferred to new centrifuge tubes. After a BCA protein assay, samples were prepared using a 5× loading buffer (Thermo Fisher). The samples were subjected to protein electrophoresis separation in a 4-20% precast gel (SDS-PAGE gel), transferred to a PVDF membrane, blocked with 5% NFDM/TBST at room temperature for 1 h, incubated overnight with primary antibodies at 4° C., and incubated with a secondary antibody at room temperature for 2 h the next day. Signals were detected using a MINICHEMITM imaging system.
• Anti-GSPT1: Abcam ab234433 • Anti-beta actin: Fude Biological FD0060
• Anti-rabbit peroxidase-linked secondary antibody: Fude Biological FDG007
The degradation effects of the compounds on GSPT1 protein are shown in Table 1, where A represents a GSPT1 protein degradation percentage of no less than 70%, B represents a degradation percentage of less than 70% but no less than 30%, and C represents a degradation percentage of less than 30%.

Compound `O=C1CCC(n2ncc3cc(CNC(=O)C4=Cc5cc(Cl)ccc5OC4)ccc3c2=O)C(=O)N1` (stereo not drawn) [Compound T-13, 6-Chloro-N-((2-(2,6-dioxopiperidin-3-yl)-1-oxo-1,2-dihydrophthalazin-6-yl)methyl)-2H-chromene-3-carboxamide] has a pIC50 (KG-1 cells) of 6.52 to 7.52 and an inhibition at 0.2 µM (GSPT1 protein) of 30 to 70%.
`O=C1CCC(n2ncc3cc(CNC(=O)C4=Cc5cc(F)cc(F)c5OC4)ccc3c2=O)C(=O)N1` (stereo not drawn) [Compound T-19, N-((2-(2,6-Dioxopiperidin-3-yl)-1-oxo-1,2-dihydrophthalazin-6-yl)methyl)-6,8-difluoro-2H-chromene-3-carboxamide] gave a pIC50 (KG-1 cells) of 6.52 to 7.52 and an inhibition at 0.2 µM (GSPT1 protein) of 30 to 70%.
With `O=C1CCC(n2ncc3cc(CNC(=O)C4=Cc5cccc(F)c5OC4)ccc3c2=O)C(=O)N1` (stereo not drawn) [Compound T-5, N-((2-(2,6-Dioxopiperidin-3-yl)-1-oxo-1,2-dihydrophthalazin-6-yl)methyl)-8-fluoro-2H-chromene-3-carboxamide] the pIC50 (KG-1 cells) was ≥ 7.52 and the inhibition at 0.2 µM (GSPT1 protein) was 30 to 70%.
In the case of `O=C1CCC(n2ncc3cc(NC(=O)C4=Cc5ccccc5OC4)ccc3c2=O)C(=O)N1` (stereo not drawn) [Compound T-25, N-(2-(2,6-Dioxopiperidin-3-yl)-1-oxo-1,2-dihydrophthalazin-6-yl)-2H-chromene-3-carboxamide], the pIC50 (KG-1 cells) was 6.52 to 7.52 and the inhibition at 0.2 µM (GSPT1 protein) was < 30%.
In the case of `O=C1CCC(n2ncc3cc(CNC(=O)C4COc5ccc(F)cc5C4)ccc3c2=O)C(=O)N1` (stereo not drawn) [Compound T-22, N-((2-(2,6-Dioxopiperidin-3-yl)-1-oxo-1,2-dihydrophthalazin-6-yl)methyl)-6-fluorochromane-3-carboxamide], the pIC50 (KG-1 cells) was ≥ 7.52 and the inhibition at 0.2 µM (GSPT1 protein) was 30 to 70%.
Work on `O=C1CCC(n2ncc3cc(CNC(=O)C4COc5ccccc5C4)ccc3c2=O)C(=O)N1` (stereo not drawn) [Compound T-21, N-((2-(2,6-Dioxopiperidin-3-yl)-1-oxo-1,2-dihydrophthalazin-6-yl)methyl) chromane-3-carboxamide] yielded a pIC50 (KG-1 cells) of 6.52 to 7.52 and an inhibition at 0.2 µM (GSPT1 protein) of 30 to 70%.
`O=C1CCC(n2ncc3cc(NC(=O)C4=Cc5cc(OC(F)(F)F)ccc5OC4)ccc3c2=O)C(=O)N1` (stereo not drawn) [Compound T-27, N-(2-(2,6-Dioxopiperidin-3-yl)-1-oxo-1,2-dihydrophthalazin-6-yl)-6-(trifluoromethoxy)-2H-chromene-3-carboxamide] was tested, and the pIC50 (KG-1 cells) was 6.52 to 7.52 and the inhibition at 0.2 µM (GSPT1 protein) was < 30%.
For `O=C1CCC(n2ncc3cc(CNC(=O)C4=Cc5cccc(OC(F)(F)F)c5OC4)ccc3c2=O)C(=O)N1` (stereo not drawn) [Compound T-9, N-((2-(2,6-Dioxopiperidin-3-yl)-1-oxo-1,2-dihydrophthalazin-6-yl)methyl)-8-(trifluoromethoxy)-2H-chromene-3-carboxamide], the pIC50 (KG-1 cells) was ≥ 7.52 and the inhibition at 0.2 µM (GSPT1 protein) was 30 to 70%.
`O=C1CCC(n2ncc3cc(CNC(=O)C4=Cc5c(F)cccc5OC4)ccc3c2=O)C(=O)N1` (stereo not drawn) [Compound T-2, N-((2-(2,6-Dioxopiperidin-3-yl)-1-oxo-1,2-dihydrophthalazin-6-yl)methyl)-5-fluoro-2H-chromene-3-carboxamide] was tested, and the pIC50 (KG-1 cells) was ≥ 7.52 and the inhibition at 0.2 µM (GSPT1 protein) was ≥ 70%.
For `O=C1CCC(n2ncc3cc(CNC(=O)C4=Cc5c(cccc5C(F)(F)F)OC4)ccc3c2=O)C(=O)N1` (stereo not drawn) [Compound T-15, N-((2-(2,6-Dioxopiperidin-3-yl)-1-oxo-1,2-dihydrophthalazin-6-yl)methyl)-5-(trifluoromethyl)-2H-chromene-3-carboxamide], the pIC50 (KG-1 cells) was ≥ 7.52 and the inhibition at 0.2 µM (GSPT1 protein) was ≥ 70%.
For `O=C1CCC(n2ncc3cc(NC(=O)C4=Cc5cc(F)ccc5OC4)ccc3c2=O)C(=O)N1` (stereo not drawn) [Compound T-26, N-(2-(2,6-Dioxopiperidin-3-yl)-1-oxo-1,2-dihydrophthalazin-6-yl)-6-fluoro-2H-chromene-3-carboxamide], the pIC50 (KG-1 cells) was 6.52 to 7.52 and the inhibition at 0.2 µM (GSPT1 protein) was < 30%.
With `O=C1CCC(n2ncc3cc(CNC(=O)C4=Cc5cc(Br)ccc5OC4)ccc3c2=O)C(=O)N1` (stereo not drawn) [Compound T-14, 6-Bromo-N-((2-(2,6-dioxopiperidin-3-yl)-1-oxo-1,2-dihydrophthalazin-6-yl)methyl)-2H-chromene-3-carboxamide] the pIC50 (KG-1 cells) was 6.52 to 7.52 and the inhibition at 0.2 µM (GSPT1 protein) was 30 to 70%.
`Cc1cccc2c1OCC(C(=O)NCc1ccc3c(=O)n(C4CCC(=O)NC4=O)ncc3c1)=C2` (stereo not drawn) [Compound T-11, N-((2-(2,6-Dioxopiperidin-3-yl)-1-oxo-1,2-dihydrophthalazin-6-yl)methyl)-8-methyl-2H-chromene-3-carboxamide] showed a pIC50 (KG-1 cells) of 6.52 to 7.52 and an inhibition at 0.2 µM (GSPT1 protein) of 30 to 70%.
For `O=C1CCC(n2ncc3cc(NC(=O)C4=Cc5cccc(OC(F)(F)F)c5OC4)ccc3c2=O)C(=O)N1` (stereo not drawn) [Compound T-28, N-(2-(2,6-Dioxopiperidin-3-yl)-1-oxo-1,2-dihydrophthalazin-6-yl)-8-(trifluoromethoxy)-2H-chromene-3-carboxamide], the pIC50 (KG-1 cells) was 6.52 to 7.52 and the inhibition at 0.2 µM (GSPT1 protein) was 30 to 70%.
Compound `COc1ccc2c(c1)C=C(C(=O)NCc1ccc3c(=O)n(C4CCC(=O)NC4=O)ncc3c1)CO2` (stereo not drawn) [Compound T-8, N-((2-(2,6-Dioxopiperidin-3-yl)-1-oxo-1,2-dihydrophthalazin-6-yl)methyl)-6-methoxy-2H-chromene-3-carboxamide] has a pIC50 (KG-1 cells) of 6.52 to 7.52 and an inhibition at 0.2 µM (GSPT1 protein) of 30 to 70%.
`COc1cccc2c1OCC(C(=O)NCc1ccc3c(=O)n(C4CCC(=O)NC4=O)ncc3c1)=C2` (stereo not drawn) [Compound T-6, N-((2-(2,6-Dioxopiperidin-3-yl)-1-oxo-1,2-dihydrophthalazin-6-yl)methyl)-8-methoxy-2H-chromene-3-carboxamide] showed a pIC50 (KG-1 cells) of 6.52 to 7.52 and an inhibition at 0.2 µM (GSPT1 protein) of 30 to 70%.
For `O=C1CCC(n2ncc3cc(CNC(=O)C4COc5ccc(OC(F)(F)F)cc5C4)ccc3c2=O)C(=O)N1` (stereo not drawn) [Compound T-23, N-((2-(2,6-Dioxopiperidin-3-yl)-1-oxo-1,2-dihydrophthalazin-6-yl)methyl)-6-(trifluoromethoxy) chromane-3-carboxamide], the pIC50 (KG-1 cells) was ≥ 7.52 and the inhibition at 0.2 µM (GSPT1 protein) was ≥ 70%.
Compound `O=C1CCC(n2ncc3cc(CNC(=O)C4=Cc5ccc(F)cc5OC4)ccc3c2=O)C(=O)N1` (stereo not drawn) [Compound T-4, N-((2-(2,6-Dioxopiperidin-3-yl)-1-oxo-1,2-dihydrophthalazin-6-yl)methyl)-7-fluoro-2H-chromene-3-carboxamide] has a pIC50 (KG-1 cells) of 6.52 to 7.52 and an inhibition at 0.2 µM (GSPT1 protein) of 30 to 70%.
With `O=C1CCC(n2ncc3cc(CNC(=O)C4CNc5ccccc5C4)ccc3c2=O)C(=O)N1` (stereo not drawn) [Compound T-24, N-((2-(2,6-Dioxopiperidin-3-yl)-1-oxo-1,2-dihydrophthalazin-6-yl)methyl)-1,2,3,4-tetrahydroquinoline-3-carboxamide] the pIC50 (KG-1 cells) was 6.52 to 7.52 and the inhibition at 0.2 µM (GSPT1 protein) was ≥ 70%.
In the case of `CC(C)(C)c1ccc2c(c1)C=C(C(=O)NCc1ccc3c(=O)n(C4CCC(=O)NC4=O)ncc3c1)CO2` (stereo not drawn) [Compound T-17, 6-(tert-Butyl)-N-((2-(2,6-dioxopiperidin-3-yl)-1-oxo-1,2-dihydrophthalazin-6-yl)methyl)-2H-chromene-3-carboxamide], the pIC50 (KG-1 cells) was ≥ 7.52 and the inhibition at 0.2 µM (GSPT1 protein) was ≥ 70%.
`O=C1CCC(n2ncc3cc(CNC(=O)C4=Cc5ccccc5OC4)ccc3c2=O)C(=O)N1` (stereo not drawn) [Compound T-1, N-((2-(2,6-Dioxopiperidin-3-yl)-1-oxo-1,2-dihydrophthalazin-6-yl)methyl)-2H-chromene-3-carboxamide] was tested, and the pIC50 (KG-1 cells) was 6.52 to 7.52 and the inhibition at 0.2 µM (GSPT1 protein) was 30 to 70%.
For `O=C1CCC(n2ncc3cc(CNC(=O)C4=Cc5cc(OC(F)(F)F)ccc5OC4)ccc3c2=O)C(=O)N1` (stereo not drawn) [Compound T-10, N-((2-(2,6-Dioxopiperidin-3-yl)-1-oxo-1,2-dihydrophthalazin-6-yl)methyl)-6-(trifluoromethoxy)-2H-chromene-3-carboxamide], the pIC50 (KG-1 cells) was ≥ 7.52 and the inhibition at 0.2 µM (GSPT1 protein) was ≥ 70%.
`C=Cc1ccc2c(c1)C=C(C(=O)NCc1ccc3c(=O)n(C4CCC(=O)NC4=O)ncc3c1)CO2` (stereo not drawn) [Compound T-16, N-((2-(2,6-Dioxopiperidin-3-yl)-1-oxo-1,2-dihydrophthalazin-6-yl)methyl)-6-vinyl-2H-chromene-3-carboxamide] was tested, and the pIC50 (KG-1 cells) was < 6.52 and the inhibition at 0.2 µM (GSPT1 protein) was < 30%.
`O=C1CCC(n2ncc3cc(CNC(=O)C4=Cc5cc(-c6ccccc6)ccc5OC4)ccc3c2=O)C(=O)N1` (stereo not drawn) [Compound T-18, N-((2-(2,6-Dioxopiperidin-3-yl)-1-oxo-1,2-dihydrophthalazin-6-yl)methyl)-6-phenyl-2H-chromene-3-carboxamide] was tested, and the pIC50 (KG-1 cells) was ≥ 7.52 and the inhibition at 0.2 µM (GSPT1 protein) was ≥ 70%.
